Test results published in US20160287602A1, “METHODS FOR PROMOTING MOTOR NEURON SURVIVAL” (PRESIDENT AND FELLOWS OF HARVARD COLLEGE, priority 2013, published 2016).
Entries after “also recorded” stand apart in the source; their conditions may differ.

Assays:
[1] = tested on: Hb9::GFP MNs; assay: MN morphology analysis of surviving MNs; type: cell-based, mouse; conditions: absence of trophic factors, extended time point
Description: (§1) To examine whether MNs kept alive by AKIs maintain morphological integrity we carried out a series of analyses on surviving MNs in the absence of trophic factors. […] We also used an automated imager to analyze the number of synapses per MN by counting co-localized regions positive for the presynaptic marker synapsin and the postsynaptic marker PSD-95.

[2] = tested on: SOD1^G93A/Hb9::GFP MNs; assay: MN morphology analysis of surviving MNs; type: cell-based, mouse; conditions: absence of trophic factors, extended time point
Description: as §1

[3] = tested on: synaptophysin; assay: Synaptophysin immunoblot, iPSC-derived MNs; type: cell-based, human; conditions: both the presence and absence of trophic factors
Description: (§2) We produced MNs from human iPSCs lines including a healthy control, two ALS patients expressing confirmed mutations in SOD1 (Boulting et al., 2011), two with mutations in TDP-43 and one in C90RF72. We treated these cultures with AraC to minimize the number of proliferating progenitors. […] We also examined the effect of SOD 1^G93A astrocytes co-culture on iPSC derived MNs. We found no toxic effect on survival in any of the patient iPSC derived MNs, but we did observe decreased MN survival in the control iPSC derived MNs. […] We also looked at the effect of AKIs on morphology and synapse formation. […] In addition, by immunoblot we observed that ZM447439 enhanced synaptic protein, synaptophysin, expression in both the presence and absence of trophic factors.

[4] = tested on: iPSC-derived MN lines; assay: Morphology of iPSC-derived MNs; type: cell-based, human; conditions: all iPSC-derived MN lines, absence of trophic factor
Description: as §2

[5] = tested on: wild-type (Hb9::GFP) mouse ESC derived MNs; assay: MN survival after trophic factor withdrawal, mixed culture; type: cell-based
Description: In the present study, we have screened highly specific small molecule kinase inhibitors to identify those which could promote MN survival. For the screen, we generated MNs from wild-type (Hb9::GFP) and SOD1^G93A (SOD1^G93A/Hb9::GFP) mouse ESCs using published protocols (Di Giorgio et al., 2007). We withdrew trophic factors as a standard method to induce MN death. Cell plating density as well as timing for initiation and duration of trophic factor withdrawal were used exactly as published to achieve ˜80% MN death in 3 days (FIG. 1A) (Yang et al., 2013). […] We continued to work with this compound class as it reproducibly promoted survival of both MNs types and the effect was robust. We further reasoned that since this compound class promoted survival of both MN types, the probability of its working in other contexts such as on human MNs and in the ALS mouse model was maximum. […]
Trophic factors were removed and ZM447439 was added to the cultures as previously and MN survival was analyzed on day 7, 14 & 21.

[6] = tested on: FACS purified MNs; assay: Area of MN cell bodies in astrocyte co-culture; type: cell-based, mouse
Protocol: We sought to examine whether AKIs decrease the toxic effect of SOD1^G93A mutant astrocytes. We first cultured primary astrocytes from wild type (WT) and SOD1^G93A mice and plated FACS purified MNs on top. We observed significant cell death when MNs were cultured on mutated astrocytes compared to WT astrocytes. ZM447439 improved both Hb9::GFP and SOD1^G93A/Hb9::GFP MN survival.

[7] = tested on: human iPSC derived MNs (healthy control, SOD1, TDP-43, C90RF72); assay: Human iPSC derived MN survival; type: cell-based
Description: as §2

[8] = tested on: phosphorylated BAD (pBAD); assay: Phosphorylated BAD immunostaining in surviving MNs; type: cell-based, mouse; conditions: absence of TFs
[9] = tested on: iPSC-derived MN lines; assay: Synapse formation of iPSC-derived MNs; type: cell-based, human; conditions: all iPSC-derived MN lines, absence of trophic factor
Description: as §2

[10] = tested on: synaptophysin in Hb9::GFP MN cultures; assay: Synaptophysin immunoblotting; type: cell-based, mouse
[11] = tested on: synaptophysin in SOD1^G93A/Hb9::GFP MN cultures; assay: Synaptophysin immunoblotting; type: cell-based, mouse
[12] = tested on: wild-type (Hb9::GFP) mouse ESC derived MNs; assay: MN survival after trophic factor withdrawal, mixed culture; type: cell-based; conditions: in presence of neurotrophic factors; day 7, 14 & 21
[13] = tested on: FACS purified Hb9::GFP MNs; assay: MN survival after trophic factor withdrawal, FACS purified MN culture; type: cell-based, mouse; conditions: FACS purified MN cultures, trophic factors withdrawn, FIG. 1C
Description: ESC-derived MN culture achieves ˜30%-50% MN differentiation efficiency and is therefore highly heterogeneous. To examine whether AKIs specifically act in a cell-autonomous or non-cell-autonomous manner, we established a highly enriched MN culture through FACS purification based on Hb9::GFP reporter expression. […] Next, we asked whether AKIs exert their survival promoting effect only cell-autonomously or whether they also function non-cell-autonomously to rescue MN death. To address this question we produced astrocyte conditioned medium (ACM) by incubating primary murine astrocytes with AKIs (VX-680 and ZM447439). The ACM was then dialyzed using a dialyzer with pore size appropriate for eliminating residual AKIs.

[14] = tested on: MNs; assay: Lentivirus knockdown of Prkarlb, MN survival; type: cell-based, mouse
Description: Next we sought to investigate the mechanism by which AKIs promote MN survival. To evaluate this comprehensively we performed microarray analysis to compare gene expression between MNs cultured with: 1) Trophic factors (+TF), 2) No trophic factors (−TF), 3) VX-680 in the absence of TFs, and 4) ZM447439 in the absence of TFs. […] Gene expression was compared between +TF and −TF, VX-680 and −TF, and ZM447439 and −TF. With a cut off of more than 3 fold difference, there were 85 genes overlapping in all three comparison in Hb9::GFP MNs and 57 in SOD1^G93A/Hb9::GFP MNs. We found 39 overlapping genes when we compared both types of MNs (FIG. 5B). […] We analyzed the shortlist of 39 genes by using DAVID functional annotation bioinformatics microarray analysis software to find the potential pathways involved in MN survival. […] PKA is known to phosphorylate BAD protein, leading to increased cell survival (Jose M. LIZCANO et al., 2000; Julian Downward et al., Nature cell biology 1999; Komaki S et al., Neurosci Lett 2012). […] We further investigated this pathway by lentivirus knockdown of Prkarlb.

## COc1cc2c(Nc3ccc(NC(=O)c4ccccc4)cc3)ncnc2cc1OCCCN1CCOCC1 [ZM447439, N-[4-[[6-Methoxy-7-[3-(4-morpholinyl)propoxy]-4-quinazolinyl]amino]phenyl]benzamide]
[1]
  MN morphology (total neurite length, maximum neurite length, number of extremities and number of nodes per MN): preserved all of these features
[2]
  MN morphology (total neurite length, maximum neurite length, number of extremities and number of nodes per MN): preserved all of these features
[3]
  synaptic protein synaptophysin expression: enhanced
[4]
  morphology: preserved both
[5]; mixed MN culture, FIG. 1B
  survival effect in dose dependent assay, comparison among AKIs: most effective and potent in promoting MN survival; also recorded: most effective and potent of all AKIs assayed
[5]; trophic factor withdrawal, 3 days, wild-type Hb9::GFP MNs
  survival of MNs (number of surviving MNs): consistently increased the survival of MNs; also recorded: most potent and robust at increasing survival
[5]; trophic factors removed, day 7, 14 & 21, Hb9::GFP MNs
  long term MN survival: increased survival
[6]
  area of MN cell bodies: increased
[7]; all human iPSC derived MN cultures, AraC treated
  MN survival: substantially increase MN survival
[7]; human iPSC derived MN cultures
  MN survival, comparison of VX-680 and ZM447439: more effective and potent in rescuing human MN death
[8]
  levels of phosphorylated BAD (pBAD): increased levels
[9]
  synapse formation: preserved both
[10]
  expression of synaptic protein synaptophysin: increased expression
[11]
  expression of synaptic protein synaptophysin: increased expression
[12]
  basal MN death: prevented
[13]
  MN survival: rescued MN survival in a dose dependent fashion
[14]
  MN survival on knocking down Prkarlb in the presence of the compound: effectively decreased MN survival
